Series [1] has as its system esophageal eosinophil infiltrate. The series is described as follows: Eosinophilic esophagitis model, L2-IL5 transgenic mouse sensitized/locally challenged with oxazolone. The series is classed as in vivo. To be noted: L2-IL5 mice, OXA, Day 13; for eosinophilia of the esophagus (MBP staining, eosinophils/400× hpf): FIG. 24. The source says:
From the observation of increased local expression of Interleukin-5 (IL-5) in EoE, transgenic mouse with targeted IL-5 expression to the esophageal squamous epithelia using the Epstein-Barr virus ED-L2 (EBV-ED-L2) gene promoter was generated. […] Even though squamous epithelial-specific IL-5 expression alone induced a significant esophageal eosinophilia encompassing the length of the esophagus, this eosinophilia was not accompanied by the density of histopathological changes such as eosinophilic micro abscesses characteristic of EoE. However, L2-IL5 transgenic mice upon sensitization and subsequent localized topical esophageal challenge with 4-ethoxymethylene-2-phenyl-2-oxazolin-5-one (OXA), a molecule known to induce T-helper cell (Th) type 2 responses, developed key histopathological features, including epithelial hyperplasia and eosinophilic micro abscesses that erupt through the epithelium into the esophageal lumen. Immunohistochemical staining of the eosinophil secondary granule major basic protein (MBP-1) was used to assess the induced esophageal eosinophilia and eosinophil degranulation. […] However, this response was small compared to the induced eosinophilia and associated degranulation that occurred in OXA-treated L2-IL5 transgenic mice (Masterson et al. Gut. 2014, 63, 1-25, which is hereby incorporated by reference in its entirety).
Prior to the OXA sensitization and topical local challenge model of delayed contact hypersensitivity, L2-IL5 transgenic mice were intraperitoneally (IP) injected with compounds or vehicle at 8, 4, and 2 days before sensitization at Day zero (schematic timeline in FIG. 20A). Compounds are prepared by dissolving in dimethyl sulfoxide (DMSO) as master stocks. Fresh working stock compounds in water are prepared for each day of injection and 100 μL of working stock or vehicle is IP injected per mouse. On day zero of the OXA sensitization/local challenge, a 2 cm×2 cm area of abdominal skin of anaesthetized experimental animals was shaved and OXA was applied to the skin surface (150 μl of a 3% (w/v) solution of OXA in 4:1 acetone-olive oil vehicle) to initiate the sensitization phase of the protocol. Sensitized mice then received topical OXA challenges of the esophagus by gavage on protocol Day 5, 8 and 12 after OXA sensitization with 100 μL of a 1% (w/v) solution of OXA in 30% ethanol/olive oil vehicle into the proximal esophagus. In addition, compounds or vehicle were IP injected on Day 5, 8, and 12 after OXA sensitization. All mice were sacrificed, and esophagus collected for histology 24 hours following the last OXA challenge on Day 12 (FIG. 20A). Immunohistochemical staining using a rat monoclonal anti-mouse MBP-1 antibody was conducted to highlight esophageal eosinophil infiltration and localized degranulation. A quantitative assessment of the esophageal eosinophil infiltrate in each group of mice was determined across nine high powered field (hpf) of view, three distal ([…] (Prox)) regions and expressed as group mean data of the eosinophil density (ie, eosinophils/400× hpf) (FIG. 20B). In addition, the eosinophilia is recorded according to the different (epithelial, lamina propia, and muscle) cell layers of the esophagus (FIG. 20C).
of NDM-X in water (20 μL of master stock in […] of water) and 0.231 μg/L of 1 in water (22 μL of master stock in 1078 μL of water) for each injection cohort that are […], respectively. On Day zero of the OXA sensitization/local challenge, a 2 cm×2 cm area of abdominal skin of anaesthetized experimental animals was shaved and OXA was applied to the skin surface to initiate the sensitization phase of the protocol. Sensitized mice then received topical OXA challenges of the esophagus by gavage on protocol Day 5, 8 and 12 after OXA sensitization in the proximal esophagus. […]

The next series has as its target T1, CYP3A4 (Homo sapiens, UniProt P08684).
T1 construct: from tissue
The series is described as follows: 5 in 1 CYP inhibition assay, CYP3A4. Type of series: in vitro ADME. To be noted: microsomes, probe midazolam (1′-hydroxylation), test compound 10 μM, n=2, read-out: inhibition of cytochrome P450 isoform 3A4. As to the method:
CYP450 dependent activities were determined using a marker substrate cocktail. For each reaction, enzyme activities in the presence and absence of test compound (10 μM) were measured in duplicate. A known inhibitor for each isoform, tested at a single concentration (3 μM, n=2), was included as positive control. Incubation mixtures containing microsomes, substrate, and standard inhibitor or test compound were warmed at 37° C. for 10 minutes. Reactions were initiated by addition of the NADPH and incubated for 10 min. [table] After incubation, ice cold acetonitrile was added to terminate the reaction. Generation of metabolites from the substrate reactions was determined by LC-MS/MS.

Series [2] concerns A549 human alveolar epithelial cells. Briefly: Stimulation of A549 human lung carcinoma cell line, cytokine expression. To be noted: A549, 10 ng/mL TNFα + 10 ng/mL IL-1β, 48 hours; for percent inhibition relative to Stimulated of IL-8 expression: FIG. 16. Type of series: cell-based. As to the method: A549 cells are cultured in DMEM supplemented with 2 mM glutamine and 10% Fetal Bovine Serum (FBS) at 37° C. with 5% (v/v) CO2. Cells are grown to approximately 80% confluency before being passage and media is changed every 2-3 days. A549 cells are seeded in 24-well plates at a density of 0.5×10^6 cells per well at 37° C. with 5% (v/v) CO2. The cells are pre-treated with the compounds (0, 1.0, 10, 100 μM) for 1 hour prior to addition of 10 ng/mL of TNFα and 10 ng/mL of IL-1β for 48 hours at 37° C. with 5% (v/v) CO2. Supernatants were collected and stored at −80° C. until quantitative detection assays are performed.
Human Eotaxin, Monocyte Chemoattractant Protein-1 (MCP-1), Interleukin-6 (IL-6), Interleukin-25 (IL-25), Interleukin-33 (IL-33), Thymic stromal lymphopoietin (TSLP), and Granulocyte-Macrophage Colony-Stimulating Factor (GM-CSF) released from supernatants collected post stimulation were measured using Human Magnetic Luminex® Assay Kit. Human CCL5/RANTES was measured using an Enzyme-Linked Immunosorbent Assay (ELISA)-based analysis.

[3] abbreviates: High Dose IP (0.92 mg/kg 1; 0.77 mg/kg NDM-X), FIG. 21.
Setting [4] is: Low Dose IP (0.014 mg/kg 1; 0.012 mg/kg NDM-X), FIG. 22.

“Also recorded” adds a separate entry of the source.

T1 sequence (P08684 whole entry): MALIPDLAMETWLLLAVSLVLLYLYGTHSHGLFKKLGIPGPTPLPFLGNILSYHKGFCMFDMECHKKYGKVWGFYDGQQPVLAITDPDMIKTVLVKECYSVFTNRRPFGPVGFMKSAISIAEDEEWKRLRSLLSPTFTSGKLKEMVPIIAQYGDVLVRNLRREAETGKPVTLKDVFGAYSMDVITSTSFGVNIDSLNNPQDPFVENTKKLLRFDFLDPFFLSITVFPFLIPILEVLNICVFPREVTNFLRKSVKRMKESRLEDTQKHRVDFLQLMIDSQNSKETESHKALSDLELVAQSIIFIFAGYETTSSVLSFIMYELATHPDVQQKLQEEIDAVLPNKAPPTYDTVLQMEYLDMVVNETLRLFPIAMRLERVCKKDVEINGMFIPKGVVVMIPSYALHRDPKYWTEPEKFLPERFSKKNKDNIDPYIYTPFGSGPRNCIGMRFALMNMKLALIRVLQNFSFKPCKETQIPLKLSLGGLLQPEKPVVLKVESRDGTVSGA

As usually defined, the inhibition is how much of the control response was suppressed. With `C[C@H](CC/C=C/C(=O)O)O[C@@H]1O[C@@H](C)[C@H](O)C[C@H]1O` [ascr #7, reference compound], the “eosinophilia of the esophagus (MBP staining, eosinophils/400× hpf)” value in series [1] (0.012 mg/kg Low Dose IP, listed as NDM-X) was “slightly better than 0.77 mg/kg High Dose of NDM-X in inhibiting the eosinophilia; also recorded: statistically significant inhibition of the eosinophilia observed in the epithelial, lamina propria, and muscle cell layers of the distal, middle, and proximal regions of the esophagus”; in series [1] (0.77 mg/kg High Dose IP), “statistically significant reduction of the eosinophilia in the epithelial and lamina propria cell layers of distal, middle, and proximal regions of the esophagus”. Moreover, the “eosinophilia of the esophagus (MBP-1 staining, eosinophils/400× hpf)” value in series [1] (setting [3]) was “statistically significant reduction in the eosinophilia in the lamina propria and muscle cell layers of the distal, middle, and proximal regions of the esophagus”; in series [1] (setting [4]) it was “statistically significant inhibition of the eosinophilia in all cell layers of the proximal region, the muscle cell layers in all regions, and the epithelial cell layer of the distal and proximal regions”. Moreover, the inhibition at 10 min, 10 µM on CYP3A4 was 0%. Also, the “percent inhibition relative to Stimulated of IL-8 expression” value in series [2] (1.0, 10, 100 μM) was “did not influence”. Moreover, the “percent inhibition relative to Stimulated of GM-CSF expression” value in series [2] (1.0, 10, 100 μM, FIG. 16, 17) is “statistically significant but not dose-dependent inhibition”. The “percent inhibition relative to Stimulated of IL-25 expression” value in series [2] (1.0, 10, 100 μM, FIG. 16, 17) is “did not influence”. The “percent inhibition relative to Stimulated of MCP-1 expression” value in series [2] (1.0, 10, 100 μM, FIG. 16, 17) was “statistically significant but not dose-dependent inhibition”.

On to `C[C@H](CC/C=C/C(=O)OC(C)(C)C)O[C@@H]1O[C@@H](C)[C@H](O)C[C@H]1O` [Compound 1, tert-butyl (2E,6R)-6-{[(2R,3R,5R,6S)-3,5-dihydroxy-6-methyloxan-2-yl]oxy}hept-2-enoate], for which, in series [1] (0.092 mg/kg Mid Dose and 0.92 mg/kg High Dose IP, FIG. 23), the “eosinophilia of the esophagus, dose dependence” value is “dose-dependently inhibited eosinophilia in the epithelial, lamina propria, and muscle cell layers of the distal, middle, and proximal regions of the esophagus”. Besides, in series [1] (0.92 mg/kg High Dose IP, FIG. 23), the “eosinophilia of the esophagus (MBP-1 staining, eosinophils/400× hpf)” value was “statistically significant inhibition of the eosinophilic esophagitis observed in epithelial cell layer of distal, middle, and proximal regions of the esophagus; also recorded: statistically significant inhibition of the eosinophilia observed in the lamina propria and muscle cell layers of the middle section of the esophagus; also recorded: statistically significant reduction in eosinophilia observed in all cell layers of the middle and proximal sections as well as the whole esophagus”. For the same compound, in series [1] (setting [3]), the “eosinophilia of the esophagus (MBP-1 staining, eosinophils/400× hpf)” value is “statistically significant inhibition of eosinophilic esophagitis in the epithelial, lamina propria, and muscle layers of the distal, middle, and proximal cell layers of the esophagus; also recorded: more robust blocking of eosinophil esophagitis in the mouse model than compared to 0.77 mg/kg NDM-X High Dose”. Further, in series [1] (setting [4]), the “eosinophilia of the esophagus (MBP-1 staining, eosinophils/400× hpf)” value was “statistically significant inhibition of the eosinophilia in all cell layers of the proximal region, epithelial cell layer of the distal region, and lamina propria cell layer of the middle section of the esophagus”. For the same compound, the inhibition at 10 min, 10 µM on CYP3A4 amounted to 1%. In addition, the “percent inhibition relative to Stimulated of IL-8 expression” value in series [2] (1.0, 10, 100 μM) was “dose-dependent inhibition”. In series [2] (1.0, 10, 100 μM, FIG. 16, 17), the “percent inhibition relative to Stimulated of GM-CSF expression” value is “statistically significant, dose-dependent inhibition”; the “percent inhibition relative to Stimulated of IL-25 expression” value is on record as “dose-dependent inhibition”; the “percent inhibition relative to Stimulated of IL-33 expression” value is “statistically significant, dose-dependent inhibition”; the “percent inhibition relative to Stimulated of MCP-1 expression” value is on record as “statistically significant, dose-dependent inhibition”. In series [2] (FIG. 18), the “percent inhibition relative to Stimulated of Eotaxin expression” value was “robust, statistically significant inhibition”; the “percent inhibition relative to Stimulated of IL-6 expression” value is listed as “robust, statistically significant inhibition”; the “percent inhibition relative to Stimulated of RANTES expression” value is “robust, statistically significant inhibition”; the “percent inhibition relative to Stimulated of TSLP expression” value was “robust, statistically significant inhibition”.

Values taken from patent US11845770B2, “Ascaroside derivatives and methods of use” (California Institute of Technology, priority 2019, dated 2023).
